This is an account of results in paper PMC12566723, “Boronic Derivatives of Thiosemicarbazones as Tyrosinase Inhibitors” (Pharmaceutics, 2025).

Where a name gives a salt, the structure may show the parent alone.

For experiment [1], the system named is SK-MEL-3. Briefly: Antiproliferative activity by sulforhodamine B assay, SK-MEL-3. The settings on record: SRB; for IC50: SK-MEL-3, 72 h; for inhibition at 100 µM: SK-MEL3, read-out: proliferation inhibition at 100µM (reported if IC50 > 100 µM), SK-MEL-3, 100 µM, 72 h. It counts as cell-based. Here is the method:
(§1) Cell lines. The Hs-294T (HTB-140), MCF-10A, and SK-MEL-3 (HTB-69) cell lines were purchased from the American Type Culture Collection (ATCC; Rockville, MD, USA). The KU-19-19 was purchased from Leibniz Institute DSMZ-German Collection of Microorganisms and Cell Cultures GmbH (Braunschweig, Germany). Hs-294T, SK-MEL-3, and KU-19-19 (ACC 395) cell lines were cultured in Dulbecco’s Modified Eagle Medium (DMEM; Biowest, Nuaille, France) supplemented with 10% (v/v) fetal bovine serum (FBS; GE Healthcare HyClone, Logan, UT, USA), 2 mM L-glutamine (Sigma-Aldrich, Poznań, Poland). The MCF-10A cell line was cultured in Ham’s F12 medium with glutamine (Corning Costar, Warsaw, Poland) supplemented with 5% (v/v) FBS, 5% (v/v) horse serum, 10 µg/mL insulin, 0.05 µg/mL cholera toxin, 0.5 µg/mL hydrocortisone, and 20 ng/mL hEGF (all from Sigma-Aldrich). All culture media contained 100 µg/mL streptomycin (Sigma-Aldrich) and 100 U/mL penicillin (PolfaTarchomin SA, Warsaw, Poland). The cell lines were tested for mycoplasma contamination using Venor GeM Classic (Minerva Biolabs, Berlin, Germany) with negative results in all cases. Cell lines were cultured in a humidified atmosphere at 37 °C with 5% (v/v) CO2 and passaged twice a week using ethylenediaminetetraacetic acid (EDTA)-Trypsin solution (pH 8; HIIET, Wroclaw, Poland) as a detachment agent.
(§2) Antiproliferative activity assessment by sulforhodamine B assay. The cells were seeded on 384-well plates (Greiner Bio One, Kremsmünster, Austria) at a density of 1 × 10^3 cells/well and, after overnight attachment, were exposed to compounds at various concentrations (at least eight concentrations). After 72 h, the sulforhodamine B (SRB) assay based on Skehan et al. was performed with minor modifications. Briefly, cell were fixed with 20% (w/v) trichloroacetic acid (Avantor Performance Materials, Gliwice, Poland) for 1 h, washed several times with tap water, and stained with 20 µL of 0.1% (w/v) solution of sulforhodamine B (Sigma-Aldrich, Poznan, Poland) in 1% (v/v) acetic acid (Avantor Performance Materials, Gliwice, Poland). After 30 min of incubation at room temperature, the unbound dye was washed out with 1% (v/v) acetic acid, whereas the bound dye was solubilized with 70 µL of a 10 mM unbuffered tris(hydroxymethyl)aminomethane (TRIS; Avantor Performance Materials, Gliwice, Poland) solution. The entire procedure was performed using Biotek EL-406 washing station (BioTek Instruments, Winooski, VT, USA). Absorbance was read using a Biotek Hybrid H4 reader (BioTek Instruments, Winooski, VT, USA) at 540 nm wavelength. Proliferation inhibition (%Inh) was calculated using the following formula: %Inh = [((A_p − A_m)/(A_k − A_m)) × 100] − 100, where Am—absorbance of cell-free medium (blank), Ak—absorbance for vehicle-treated cells (control), Ap—absorbance for compound-treated cells. […] 10.5.0 (GraphPad Software Inc., San Diego, CA, USA) using the [inhibitor] vs. response—variable slope (four parameters) Hill’s equation, based on at least three biological, independent repeats.

The subject of experiment [2] is Hs-294T. Briefly: Antiproliferative activity by sulforhodamine B assay, Hs-294T. The settings on record: for IC50: 72 h, SRB; for inhibition at 100 µM: read-out: proliferation inhibition at 100µM (reported if IC50 > 100 µM), 100 µM, 72 h, SRB. It counts as cell-based. Here is the method:
as §1, §2

Experiment [3] relates to KU-19-19. Briefly: Antiproliferative activity by sulforhodamine B assay, KU-19-19. It counts as cell-based. The settings on record: SRB; for IC50: KU-19-19, 72 h; for inhibition at 100 µM: read-out: proliferation inhibition at 100µM (reported if IC50 > 100 µM), KU-19-19, 100 µM, 72 h. The protocol: as §1, §2
For experiment [4], the system named is MCF-10A. Nature of the experiment: Antiproliferative activity by sulforhodamine B assay, MCF-10A. It counts as cell-based. The settings on record: for IC50: 72 h, SRB; for inhibition at 100 µM: read-out: proliferation inhibition at 100µM (reported if IC50 > 100 µM), 100 µM, 72 h, SRB. The protocol: as §1, §2
The test system of experiment [5] is SK-MEL-3, Hs294T, KU-19-19, MCF-10A cell lines. Briefly: Antiproliferative activity by sulforhodamine B assay, statements across the cell line panel. It counts as cell-based. The settings on record: for IC50 in SK-MEL-3 relative to the Hs294T cell line: SK-MEL-3 vs Hs294T, fold higher; for antiproliferative effects in words: up to a concentration of 100 µM. Here is the method: as §1, §2
In view of the results obtained from studies on the inhibitory activity of boronate derivatives of thiosemicarbazones against tyrosinase, we decided to test their ability to inhibit the growth and proliferation of tumor lines that overexpress tyrosinase. For this purpose, we tested antiproliferative activity on selected cell lines. Initial antiproliferative screening was conducted using a tissue-agnostic approach on a select panel of cell lines. […]

For experiment [6], the target named is mushroom tyrosinase (Agaricus bisporus, UniProt C7FF04). Nature of the experiment: Tyrosinase enzymatic assay (diphenolase activity, L-DOPA substrate, dopachrome at 475 nm). The format is biochemical. The settings on record: para-substituted analogue vs carboxylic acid of ref 30.
Chain of mushroom tyrosinase (C7FF04 2-392): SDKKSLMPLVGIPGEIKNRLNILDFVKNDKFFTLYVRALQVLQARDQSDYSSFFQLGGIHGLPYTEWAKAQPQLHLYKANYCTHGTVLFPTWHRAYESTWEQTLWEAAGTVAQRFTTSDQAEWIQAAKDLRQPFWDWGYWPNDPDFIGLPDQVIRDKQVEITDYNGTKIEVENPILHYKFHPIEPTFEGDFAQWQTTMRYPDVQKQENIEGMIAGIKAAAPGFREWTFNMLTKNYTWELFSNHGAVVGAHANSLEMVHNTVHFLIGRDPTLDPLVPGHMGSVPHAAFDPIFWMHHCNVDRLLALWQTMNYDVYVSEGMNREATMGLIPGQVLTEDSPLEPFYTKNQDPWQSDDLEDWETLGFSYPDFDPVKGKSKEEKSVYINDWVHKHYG
Chain of mushroom tyrosinase (G1K3P4 1-150 partner): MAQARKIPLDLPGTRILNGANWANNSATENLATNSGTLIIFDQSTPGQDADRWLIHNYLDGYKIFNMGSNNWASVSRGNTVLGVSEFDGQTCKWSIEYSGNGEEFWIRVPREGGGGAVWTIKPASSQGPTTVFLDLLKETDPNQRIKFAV

For the compound `[NH2][Pt]([NH2])([Cl])[Cl]` [CDDP, Cisplatin, reference compound], the IC50 was 15 µM in experiment [1], 2.17 µM in experiment [2], 4.46 µM in experiment [3] and 3.03 µM in experiment [4]. For the same compound, the “IC50 in SK-MEL-3 relative to the Hs294T cell line” value in experiment [5] was determined as 6.9 fold.
In the case of `NC(=S)N1N=Cc2ccccc2B1O` [Compound 1], the inhibition at 100 µM in experiment [1] (Homo sapiens) was 43.4%; in experiment [2] (Homo sapiens) it was 55.4%; in experiment [3] (Homo sapiens), 21.4%; in experiment [4] (Homo sapiens) it was 42.7%.
With `NC(=S)NN=Cc1cccc(B(O)O)c1` [Compound 2], the inhibition at 100 µM was 50.7% in experiment [1] (Homo sapiens), 37.6% in experiment [2] (Homo sapiens), 11.3% in experiment [3] (Homo sapiens) and 30.7% in experiment [4] (Homo sapiens).
As to `NC(=S)N/N=C/c1ccc(B(O)O)cc1` [Compound 3], the inhibition at 100 µM stood at 31.8% in experiment [1] (Homo sapiens), 13.9% in experiment [2] (Homo sapiens), 5.4% in experiment [3] (Homo sapiens) and 31.7% in experiment [4] (Homo sapiens). Besides, the “antiproliferative effects in words” value in experiment [5] is “minimal antiproliferative effects”.
Consider `CC1=NN(C(N)=S)B(O)c2ccccc21` [Compound 4], for which the half-inhibitory concentration (IC50) in experiment [1] (Homo sapiens, SK-MEL3) was 68.5 µM; in experiment [2] (Homo sapiens), 79.4 µM; in experiment [3] (Homo sapiens), 69 µM; in experiment [4] (Homo sapiens), 55 µM; in experiment [5] (all four cell lines, 72 h, SRB, read-out: IC50 values, range over the tested cell lines), 55 to 79.4 µM.
In experiment [1] (Homo sapiens, SK-MEL3), `C/C(=N\NC(N)=S)c1cccc(B(O)O)c1` [Compound 5] yielded an IC50 of 56.1 µM. Besides, the inhibition at 100 µM in experiment [2] (Homo sapiens) was determined as 35.9%; in experiment [3] (Homo sapiens) it was 26.8%; in experiment [4] (Homo sapiens), 37.1%.
Consider `C/C(=N\NC(N)=S)c1ccc(B(O)O)cc1` [Compound 6], for which the “IC50 against tyrosinase compared with the corresponding carboxylic acid” value in experiment [6] is reported as “four times lower”. Also, the inhibition at 100 µM turned out to be 37.3% in experiment [1] (Homo sapiens), 13.9% in experiment [2] (Homo sapiens), 9.5% in experiment [3] (Homo sapiens) and 32.8% in experiment [4] (Homo sapiens). For the same compound, the “antiproliferative effects in words” value in experiment [5] is on record as “minimal antiproliferative effects”.
Take `COc1cccc2c1C(=O)c1c(O)c3c(c(O)c1C2=O)C[C@@](O)(C(=O)CO)C[C@@H]3O[C@H]1C[C@H](N)[C@H](O)[C@H](C)O1` [Doxo, Doxorubicin hydrochloride, reference compound]: the IC50 in experiment [1] (Homo sapiens, SK-MEL3) came out at 0.016 µM; in experiment [2] (Homo sapiens), 0.0011 µM; in experiment [3] (Homo sapiens), 0.0016 µM; in experiment [4] (Homo sapiens) it was 0.00051 µM. Further, in experiment [5], the “IC50 in SK-MEL-3 relative to the Hs294T cell line” value came out at 14.5 fold.
